For one assay, the system named is E. coli A 261. In words: MIC, test tube series dilution test, E. coli A 261. It counts as cell-based. The note with it: 24 hours, 37°C.
The subject of a further assay is Staph. aureus 133. The class given is cell-based, Staphylococcus aureus. The note with it: Staph. aureus 133; 24 hours, 37°C.
The test system of another assay is E. coli 14. The class given is cell-based. As to conditions: E. coli 14; 24 hours, 37°C.
The test system of another assay is Enterococcus 9790. In words: MIC, test tube series dilution test, Enterococcus 9790. As to conditions: 24 hours, 37°C. The class given is cell-based.
The next assay concerns Proteus vulg. 1017. It counts as cell-based, Proteus vulgaris. As to conditions: Proteus 1017; 24 hours, 37°C.

In the case of `CC1(C)S[C@@H]2[C@H](NC(=O)[C@H](NC(=O)c3ccc(NC(=O)CC4CC5CCC4C5)cc3)c3ccccc3)C(=O)N2[C@H]1C(=O)O` (single isomer, unassigned) [Example 15, sodium D(-)-α-[4-(2-norbornylacetamido-benzoylamino)]-benzylpenicillin], the values for the MIC against E. coli A 261 and in the assay on Staph. aureus 133 were above 256 U/ml and below 1 U/ml, respectively.

With `CC1(C)S[C@@H]2[C@H](NC(=O)[C@H](NC(=O)c3ccc(NC(=O)C4CC4)cc3[N+](=O)[O-])c3ccccc3)C(=O)N2[C@H]1C(=O)O` [Example 3, sodium D(-)-α-(4-cyclopropanecarbonylamino-2-nitrobenzoylamino)-benzylpenicillin], the MIC with E. coli A 261 is given as above 256 U/ml.

For the compound `CC1(C)S[C@@H]2[C@H](NC(=O)[C@H](NC(=O)c3ccc(NC(=O)C4CCC4)cc3[N+](=O)[O-])c3ccccc3)C(=O)N2[C@H]1C(=O)O` [Example 6, sodium D(-)-α-(4-cyclobutanecarbonylamino-2-nitro-benzoylamino)-benzylpenicillin], the MIC is reported as above 256 U/ml in the assay with E. coli A 261 and below 1 U/ml in the assay with Staph. aureus 133.

`CC1(C)S[C@@H]2[C@H](NC(=O)[C@H](NC(=O)c3ccc(NC(=O)CCC4CCCC4)cc3)c3ccccc3)C(=O)N2[C@H]1C(=O)O` [Example 9, sodium D(-)-α-(4-[3-cyclopentylpropionylaminobenzoylamino)]-benzylpenicillin]: the MIC against E. coli A 261 was above 256 U/ml; in the assay on Staph. aureus 133 it was below 1 U/ml.

Consider `CC1(C)S[C@@H]2[C@H](NC(=O)[C@H](NC(=O)c3ccc(NC(=O)CCC4CCCCC4)cc3)c3ccccc3)C(=O)N2[C@H]1C(=O)O` [Example 10, sodium D(-)-α-[4-(3-cyclohexanepropionylamino-benzoylamino)]-benzylpenicillin], for which the MIC in the assay with E. coli A 261 is reported as above 256 U/ml; against E. coli 14, below 1 U/ml; against Staph. aureus 133 it was below 1 U/ml; against Enterococcus 9790, ~ 16 U/ml.

Turning to `CC1(C)S[C@@H]2[C@H](NC(=O)[C@H](NC(=O)c3ccc(NC(=O)C4CCCCCC4)cc3)c3ccccc3)C(=O)N2[C@H]1C(=O)O` [Example 13, sodium D(-)-α-(4-cycloheptanecarbonylamino-benzoylamino)-benzylpenicillin], the MIC with E. coli 14 and against Staph. aureus 133 was below 1 U/ml in each case.

For `CC1(C)S[C@@H]2[C@H](NC(=O)[C@H](NC(=O)c3ccc(NC(=O)c4cc([N+](=O)[O-])cc([N+](=O)[O-])c4)cc3)c3ccccc3)C(=O)N2[C@H]1C(=O)O` [Example 19], the MIC in the assay on E. coli A 261 was above 256 U/ml; against Proteus vulg. 1017 it was ~ 16 U/ml; against E. coli 14, below 1 U/ml; against Staph. aureus 133, below 1 U/ml.

For `CC1(C)S[C@@H]2[C@H](NC(=O)[C@H](NC(=O)c3ccc(NC(=O)c4ccc5c(c4)OCO5)cc3)c3ccccc3)C(=O)N2[C@H]1C(=O)O` [Example 24], the values for the MIC in the assay with E. coli A 261 and in the assay with Staph. aureus 133 were above 256 U/ml and below 1 U/ml, respectively.

As to `CC1(C)S[C@@H]2[C@H](NC(=O)[C@H](NC(=O)c3ccc(NC(=O)c4ccc([N+](=O)[O-])cc4)cc3[N+](=O)[O-])c3ccccc3)C(=O)N2[C@H]1C(=O)O` [Example 27, sodium D(-)-α-[4-(4-nitrobenzoylamino)-2-nitrobenzoylamino]-benzylpenicillin], the MIC against E. coli A 261 is given as above 256 U/ml; in the assay on Staph. aureus 133, below 1 U/ml.

Turning to `Cc1cc(C(=O)N[C@@H](C(=O)N[C@@H]2C(=O)N3[C@@H]2SC(C)(C)[C@@H]3C(=O)O)c2ccccc2)ccc1[N+](=O)[O-]` [Example 31, sodium D(-)-α-(4-nitro-3-methylbenzoylamino)-benzylpenicillin], the MIC against E. coli A 261 was above 256 U/ml; against Staph. aureus 133, below 1 U/ml.

For the compound `Cc1cc(C(=O)N[C@@H](C(=O)N[C@@H]2C(=O)N3[C@@H]2SC(C)(C)[C@@H]3C(=O)O)c2ccccc2)ccc1N` [Example 32, sodium D(-)-α-(4-amino-3-methyl-benzoylamino)-benzyl-penicillin], the MIC against E. coli A 261 is on record as above 256 U/ml; in the assay on Staph. aureus 133 it was below 1 U/ml.

For `CC(CC(=O)Nc1ccc(C(=O)N[C@@H](C(=O)N[C@@H]2C(=O)N3[C@@H]2SC(C)(C)[C@@H]3C(=O)O)c2ccccc2)cc1)N=[N+]=[N-]` (stereo partly shown) [Example 40], the MIC against E. coli A 261 was above 256 U/ml; in the assay on Staph. aureus 133, below 1 U/ml.

In the assay with Staph. aureus 133, `CC1(C)S[C@@H]2[C@H](NC(=O)[C@H](NC(=O)c3ccc(NC(=O)c4cccs4)cc3)c3ccccc3)C(=O)N2[C@H]1C(=O)O` [Example 48] came in with an MIC below 1 U/ml.

On to `CC1(C)S[C@@H]2[C@H](NC(=O)[C@H](NC(=O)C=Cc3ccc([N+](=O)[O-])cc3)c3ccccc3)C(=O)N2[C@H]1C(=O)O` [Example 54], for which the MIC against E. coli A 261 is above 256 U/ml; in the assay on Staph. aureus 133, below 1 U/ml.

Regarding `CC1(C)S[C@@H]2[C@H](NC(=O)[C@H](NC(=O)C=Cc3ccc(NC=O)cc3)c3ccccc3)C(=O)N2[C@H]1C(=O)O` [Example 55], the MIC was above 256 U/ml against Proteus vulg. 1017 and below 1 U/ml in the assay on Staph. aureus 133.

As to `CC1(C)S[C@@H]2[C@H](NC(=O)[C@H](NC(=O)C=Cc3ccc(NC(=O)C4CC4)cc3)c3ccccc3)C(=O)N2[C@H]1C(=O)O` [Example 56], the MIC was above 256 U/ml in the assay with E. coli A 261 and below 1 U/ml in the assay on Staph. aureus 133.

Turning to `CC1(C)S[C@@H]2[C@H](NC(=O)[C@H](NC(=O)C=Cc3ccc(NC(=O)C4CCC4)cc3)c3ccccc3)C(=O)N2[C@H]1C(=O)O` [Example 57], the MIC in the assay with E. coli A 261 is reported as above 256 U/ml; in the assay with E. coli 14, ~ 1 U/ml; with Staph. aureus 133, below 1 U/ml.

For the compound `COc1cc(C(=O)Nc2ccc(SCC(=O)N[C@@H](C(=O)N[C@@H]3C(=O)N4[C@@H]3SC(C)(C)[C@@H]4C(=O)O)c3ccccc3)cc2)cc(OC)c1OC` [Example 58], the MIC is above 256 U/ml against Proteus vulg. 1017, ~ 16 U/ml with E. coli 14 and below 1 U/ml with Staph. aureus 133.

As to `CC1(C)S[C@@H]2[C@H](NC(=O)[C@H](NC(=O)CSc3ccc(NC(=O)CC4C=CCC4)cc3)c3ccccc3)C(=O)N2[C@H]1C(=O)O` (stereo partly shown) [Example 62], the MIC in the assay with E. coli A 261 was above 256 U/ml.

On to `CC1(C)S[C@@H]2[C@H](NC(=O)[C@H](NC(=O)CNC(=O)c3ccc(NC(=O)C4=CCCCC4)cc3)c3ccccc3)C(=O)N2[C@H]1C(=O)O` [Example 67], for which the MIC with Proteus vulg. 1017 is recorded as above 256 U/ml; with Staph. aureus 133, below 1 U/ml.

For `CC1(C)S[C@@H]2[C@H](NC(=O)[C@H](NC(=O)CNC(=O)c3ccc(N=[N+]=[N-])cc3)c3ccccc3)C(=O)N2[C@H]1C(=O)O` [Example 68], the values for the MIC against E. coli A 261 and against Staph. aureus 133 were above 256 U/ml and below 1 U/ml, respectively.

Regarding `CC1(C)S[C@@H]2[C@H](NC(=O)[C@H](NC(=O)CNC(=O)c3ccc([N+](=O)[O-])cc3)c3ccccc3)C(=O)N2[C@H]1C(=O)O` [Example 69], the MIC with E. coli A 261 is listed as above 256 U/ml; in the assay with Staph. aureus 133 it was below 1 U/ml.

As to `CC1(C)S[C@@H]2[C@H](NC(=O)[C@H](NC(=O)c3cc(NC(=O)C4CCC4)cc(NC(=O)C4CCC4)c3)c3ccccc3)C(=O)N2[C@H]1C(=O)O` [Example 73], the MIC against E. coli A 261 is above 256 U/ml; in the assay on Staph. aureus 133, below 1 U/ml.

The values are drawn from patent publication US4001218A, “Penicillins” (Bayer Aktiengesellschaft, priority 1972, dated 1977).
